From the supplement of paper PMC10307832

What was measured:
Test in all cases: relative viability (nuclei count vs DMSO), 5 days (fraction); higher = more cells survive
NCI-H2347 = test system: NCI-H2347
Procedure, shortened: (§1)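 Relative viability equals treated-well nuclei counts divided by vehicle-well nuclei counts. Counts came from 4× images of lung cancer cell lines grown in 1536-well plates for 5 days after pin-tool dosing on the day after seeding. Dosing used one drug alone or a fixed anchor-drug dose plus five library-drug doses (not always all listed) in √10 steps, and values are medians of duplicate plates.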

NCI-H520 = test system: NCI-H520
Procedure, shortened: as §1

NCI-H1915 = test system: NCI-H1915
Procedure, shortened: as §1

COR-L 105 = test system: COR-L 105
Procedure, shortened: as §1

RERF-LC-KJ = test system: RERF-LC-KJ
Procedure, shortened: as §1

NCI-H23 = test system: NCI-H23
Procedure, shortened: as §1

NCI-H661 = test system: NCI-H661
Procedure, shortened: as §1

201T = test system: 201T
Procedure, shortened: as §1

LCLC-97TM1 = test system: LCLC-97TM1
Procedure, shortened: as §1

PC-14 = test system: PC-14
Procedure, shortened: as §1

ChaGo-K-1 = test system: ChaGo-K-1
Procedure, shortened: as §1

LC-2-ad = test system: LC-2-ad
Procedure, shortened: as §1

HCC-827 = test system: HCC-827
Procedure, shortened: as §1

NCI-H2405 = test system: NCI-H2405
Procedure, shortened: as §1

NCI-H1666 = test system: NCI-H1666
Procedure, shortened: as §1

EPLC-272H = test system: EPLC-272H
Procedure, shortened: as §1

HCC-78 = test system: HCC-78
Procedure, shortened: as §1

NCI-H2126 = test system: NCI-H2126
Procedure, shortened: as §1

NCI-H647 = test system: NCI-H647
Procedure, shortened: as §1

NCI-H322M = test system: NCI-H322M
Procedure, shortened: as §1

H3255 = test system: H3255
Procedure, shortened: as §1

NCI-H2087 = test system: NCI-H2087
Procedure, shortened: as §1

NCI-H650 = test system: NCI-H650
Procedure, shortened: as §1

Question: What does the source list for `Oc1nc(-c2ccc(C(F)(F)F)cc2)nc2c1CSCC2` [XAV939] + Cc1cc(Nc2cc(N3CCN(C)CC3)nc(Sc3ccc(NC(=O)C4CC4)cc3)n2)n[nH]1 [Tozasertib] (partner 0.1 µM)?
Answer: relative viability (NCI-H2347; first compound 0.08 µM): 0.613; relative viability (NCI-H2347; first compound 2.53 µM): 0.388; relative viability (NCI-H520; first compound 0.08 µM): 0.42; relative viability (NCI-H520; first compound 0.253 µM): 0.439; relative viability (NCI-H520; first compound 0.8 µM): 0.461; relative viability (NCI-H520; first compound 2.53 µM): 0.427; relative viability (NCI-H1915; first compound 0.08 µM): 0.5; relative viability (NCI-H1915; first compound 0.253 µM): 0.444; relative viability (NCI-H1915; first compound 0.8 µM): 0.416; relative viability (NCI-H1915; first compound 2.53 µM): 0.43; relative viability (COR-L 105; first compound 0.08 µM): 0.358; relative viability (COR-L 105; first compound 0.253 µM): 0.374; relative viability (COR-L 105; first compound 0.8 µM): 0.349; relative viability (COR-L 105; first compound 2.53 µM): 0.343; relative viability (RERF-LC-KJ; first compound 0.08 µM): 0.546; relative viability (RERF-LC-KJ; first compound 0.253 µM): 0.465; relative viability (RERF-LC-KJ; first compound 0.8 µM): 0.462; relative viability (RERF-LC-KJ; first compound 2.53 µM): 0.409; relative viability (NCI-H23; first compound 0.08 µM): 0.403; relative viability (NCI-H23; first compound 0.253 µM): 0.373; relative viability (NCI-H23; first compound 0.8 µM): 0.343; relative viability (NCI-H23; first compound 2.53 µM): 0.357; relative viability (NCI-H661; first compound 0.08 µM): 0.364; relative viability (NCI-H661; first compound 0.253 µM): 0.346; relative viability (NCI-H661; first compound 0.8 µM): 0.365; relative viability (NCI-H661; first compound 2.53 µM): 0.339; relative viability (201T; first compound 0.08 µM): 0.99; relative viability (201T; first compound 0.253 µM): 0.763; relative viability (201T; first compound 0.8 µM): 0.812; relative viability (201T; first compound 2.53 µM): 0.755; relative viability (LCLC-97TM1; first compound 0.08 µM): 0.344; relative viability (LCLC-97TM1; first compound 0.253 µM): 0.238; relative viability (LCLC-97TM1; first compound 0.8 µM): 0.186; relative viability (LCLC-97TM1; first compound 2.53 µM): 0.352; relative viability (PC-14; first compound 0.08 µM): 0.673; relative viability (PC-14; first compound 0.253 µM): 0.551; relative viability (PC-14; first compound 0.8 µM): 0.685; relative viability (PC-14; first compound 2.53 µM): 0.544; relative viability (ChaGo-K-1; first compound 0.08 µM): 0.216; relative viability (ChaGo-K-1; first compound 0.253 µM): 0.223; relative viability (ChaGo-K-1; first compound 0.8 µM): 0.222; relative viability (ChaGo-K-1; first compound 2.53 µM): 0.209; relative viability (LC-2-ad; first compound 0.08 µM): 0.481; relative viability (LC-2-ad; first compound 0.253 µM): 0.446; relative viability (LC-2-ad; first compound 0.8 µM): 0.488; relative viability (LC-2-ad; first compound 2.53 µM): 0.381; relative viability (HCC-827; first compound 0.08 µM): 0.423; relative viability (HCC-827; first compound 0.253 µM): 0.387; relative viability (HCC-827; first compound 0.8 µM): 0.414; relative viability (HCC-827; first compound 2.53 µM): 0.384; relative viability (NCI-H2405; first compound 0.08 µM): 0.805; relative viability (NCI-H2405; first compound 0.253 µM): 0.72; relative viability (NCI-H2405; first compound 0.8 µM): 0.712; relative viability (NCI-H2405; first compound 2.53 µM): 0.66; relative viability (NCI-H1666; first compound 0.08 µM): 0.576; relative viability (NCI-H1666; first compound 0.253 µM): 0.565; relative viability (NCI-H1666; first compound 0.8 µM): 0.599; relative viability (NCI-H1666; first compound 2.53 µM): 0.582; relative viability (EPLC-272H; first compound 0.08 µM): 0.409; relative viability (EPLC-272H; first compound 0.253 µM): 0.287; relative viability (EPLC-272H; first compound 0.8 µM): 0.22; relative viability (EPLC-272H; first compound 2.53 µM): 0.255; relative viability (HCC-78; first compound 0.08 µM): 0.558; relative viability (HCC-78; first compound 0.253 µM): 0.373; relative viability (HCC-78; first compound 0.8 µM): 0.531; relative viability (HCC-78; first compound 2.53 µM): 0.368; relative viability (NCI-H2126; first compound 0.08 µM): 0.791; relative viability (NCI-H2126; first compound 0.253 µM): 0.774; relative viability (NCI-H2126; first compound 0.8 µM): 0.778; relative viability (NCI-H2126; first compound 2.53 µM): 0.651; relative viability (NCI-H647; first compound 0.08 µM): 0.288; relative viability (NCI-H647; first compound 0.253 µM): 0.217; relative viability (NCI-H647; first compound 0.8 µM): 0.262; relative viability (NCI-H647; first compound 2.53 µM): 0.146; relative viability (NCI-H322M; first compound 0.08 µM): 0.553; relative viability (NCI-H322M; first compound 0.253 µM): 0.432; relative viability (NCI-H322M; first compound 0.8 µM): 0.431; relative viability (NCI-H322M; first compound 2.53 µM): 0.4; relative viability (H3255; first compound 0.08 µM): 0.699; relative viability (H3255; first compound 0.253 µM): 0.597; relative viability (H3255; first compound 0.8 µM): 0.597; relative viability (H3255; first compound 2.53 µM): 0.544; relative viability (NCI-H2087; first compound 0.08 µM): 0.234; relative viability (NCI-H2087; first compound 0.253 µM): 0.231; relative viability (NCI-H2087; first compound 0.8 µM): 0.256; relative viability (NCI-H2087; first compound 2.53 µM): 0.181; relative viability (NCI-H650; first compound 0.08 µM): 0.883; relative viability (NCI-H650; first compound 0.253 µM): 0.691; relative viability (NCI-H650; first compound 0.8 µM): 0.646; relative viability (NCI-H650; first compound 2.53 µM): 0.611
